# Assay results as given in patent US20260231929A1, “SOLVENT COMPOSITION FOR AGROCHEMICAL FORMULATIONS” (SPECIALTY OPERATIONS FRANCE, priority 2023, published 2026).
# Assay: Test 1: Maximal solubility of an active in a solvent system (visual observation)
# Type: physicochemical
# Description: The maximal solubility of an active or a combo of actives in a solvent system is characterized by visual observation. At a given concentration, if the mixture is limpid (with the naked eye), the active ingredient(s) is (are) considered to be soluble in the solvent system at this concentration. However, if a sedimentation of the active ingredient(s) appears, it is not soluble anymore in the solvent system and the maximal solubility is reached. The maximal solubility is thus defined as the maximum amount of active ingredient(s) that can be dissolved in the solvent system, equal to the amount at which the mixture remains limpid (with the naked eye). Each active ingredient or combo is added little by little in different solvent systems. The solutions are magnetically stirred until complete dissolution. Then an additional amount of active ingredient is added and this operation is repeated until the last part of active ingredient added could not be dissolved anymore, taking care to stir the solution after each addition of active ingredient.
smiles,measurement,setting,value
"CCCCCCCCCC(=O)N(C)C [Rhodiasolv ® ADMA 10, N,N-dimethyldecanamide]",maximal solubility of Oxyfluorfen,oxyfluorfen (solo) dissolved in the solvent system,49.0 g/100 g of solvent
same,maximal solubility of Picoxystrobin,picoxystrobin (solo) dissolved in the solvent system,30.0 g/100 g of solvent
